In US20050043315A1, “Aminopyrimidine compounds, processes for their preparation and pharmaceutical compositions containing them” (priority 2002, published 2005):

melting point	SMILES
200 °C	CC(C)n1nc(-c2cnc(N)nc2-c2ccccc2OCCCF)ccc1=O [Example 215, 6-{2-Amino-4-[2-(3-fluoropropoxy)phenyl]-5-pyrimidinyl}-2-isopropyl-3(2H)-pyridazinone]
123 °C	CC(C)n1nc(-c2cnc(N)nc2-c2cccc(OCCCF)c2)ccc1=O [Example 216, 6-{2-Amino-4-[3-(3-fluoropropoxy)phenyl]-5-pyrimidinyl}-2-isopropyl-3(2H)-pyridazinone]
162 °C	CC(C)n1nc(-c2cnc(N)nc2-c2ccc(OCCN(C)C)cc2)ccc1=O [Example 217, 6-(2-amino-4-{4-(2-(dimethylamino)ethoxy]phenyl}-5-pyrimidinyl)-2-isopropyl-3(2H)-pyridazinone]
198 °C	CC(C)n1nc(-c2cnc(N)nc2-c2ccccc2OCCN(C)C)ccc1=O [Example 218, 6-(2-Amino-4-{2-[2-(dimethylamino)ethoxy]phenyl}-5-pyrimidinyl)-2-isopropyl-3(2H)-pyridazinone]
111 °C	CC(C)n1nc(-c2cnc(N)nc2-c2cccc(OCCN(C)C)c2)ccc1=O [Example 219, 6-(2-Amino-4-{3-[2-(dimethylamino)ethoxy]phenyl}-5-pyrimidinyl)-2-isopropyl-3(2H)-pyridazinone]
161 °C	CC(C)n1nc(-c2cnc(N)nc2-c2ccc(OCCN3CCOCC3)cc2)ccc1=O [Example 220, 6-(2-Amino-4-{4-[2-(4-morpholinyl)ethoxy]phenyl}-5-pyrimidinyl)-2-isopropyl-3(2H)-pyridazinone]
115 °C	CC(C)n1nc(-c2cnc(N)nc2-c2ccccc2OCCN2CCOCC2)ccc1=O [Example 221, 6-(2-Amino-4-{2-[2-(4-morpholinyl)ethoxy]phenyl}-5-pyrimidinyl)-2-isopropyl-3(2H)-pyridazinone]

Continued, molecule first:

SMILES	melting point
CC(C)COc1cccc(-c2nc(N)ncc2-c2ccc(=O)n(C(C)C)n2)c1 [Example 202, 6-[2-Amino-4-(3-isobutoxyphenyl)-5-pyrimidinyl]-2-isopropyl-3(2H)-pyridazinone]	137 °C
CC(C)CCOc1ccccc1-c1nc(N)ncc1-c1ccc(=O)n(C(C)C)n1 [Example 204, 6-{2-Amino-4-(2-(isopentyloxy)phenyl]-5-pyrimidinyl}-2-isopropyl-3(2H)-pyridazinone]	155 °C
CC(C)CCOc1cccc(-c2nc(N)ncc2-c2ccc(=O)n(C(C)C)n2)c1 [Example 205, 6-{2-Amino-4-[3-(isopentyloxy)phenyl]-5-pyrimidinyl}-2-isopropyl-3(2H)-pyridazinone]	97 °C
CCCCCCOc1ccc(-c2nc(N)ncc2-c2ccc(=O)n(C(C)C)n2)cc1 [Example 206, 6-{2-Amino-4-[4-(hexyloxy)phenyl]-5-pyrimidinyl}-2-isopropyl-3(2H)-pyridazinone]	184 °C
CCCCCCOc1ccccc1-c1nc(N)ncc1-c1ccc(=O)n(C(C)C)n1 [Example 207, 6-{2-Amino-4-[2-(hexyloxy)phenyl]-5-pyrimidinyl}-2-isopropyl-3(2H)-pyridazinone]	92 °C
CCCCCCOc1cccc(-c2nc(N)ncc2-c2ccc(=O)n(C(C)C)n2)c1 [Example 208, 6-{2-Amino-4-[3-(hexyloxy)phenyl]-5-pyrimidinyl}-2-isopropyl-3(2H)-pyridazinone]	121 °C
CC(C)n1nc(-c2cnc(N)nc2-c2ccc(OCCF)cc2)ccc1=O [Example 209, 6-{2-Amino-4-[4-(2-fluoroethoxy)phenyl]-5-pyrimidinyl}-2-isopropyl-3(2H)-pyridazinone]	200 °C
CC(C)n1nc(-c2cnc(N)nc2-c2ccccc2OCCF)ccc1=O [Example 210, 6-{2-Amino-4-[2-(2-fluoroethoxy)phenyl]-5-pyrimidinyl}-2-isopropyl-3(2H)-pyridazinone]	171 °C
CC(C)n1nc(-c2cnc(N)nc2-c2cccc(OCCF)c2)ccc1=O [Example 211, 6-{2-Amino-4-[3-(2-fluoroethoxy)phenyl]-5-pyrimidinyl}-2-isopropyl-3(2H)-pyridazinone]	123 °C
